Experiments:
[1] = Photostability test of sweet enhancers with/without photostabilizers in Q-Sun Xenon Test Chamber
Protocol: Aqueous buffer solution at pH 7.1 contains 50 mM potassium dihydrogen phosphate and ˜32 mM sodium hydroxide (solutions of 1.0 M hydrochloric acid and 1.0 M sodium hydroxide are used to adjust pH). Aqueous buffer solution at pH 4.0 contains 50 mM citric acidmonosodium salt and ˜7.4 mM sodium hydroxide (solutions of 1.0 M hydrochloric acid and 1.0 M sodium hydroxide are used to adjust pH). Aqueous buffer solution at pH 2.8 contains 50 mM citric acid and ˜16 mM sodium hydroxide (solutions of 1.0 M hydrochloric acid and 1.0 M sodium hydroxide are used to adjust pH).
The stock solutions of the test compounds at 25 mM are made by dissolving the compounds in dimethyl sulfoxide. The solutions of the stabilizers are made by dissolving the materials in the aqueous buffers. The stock solutions are then diluted to 25 μM with the stabilizer solutions to prepare the test solution and 4-mL aliquots of the solutions are transferred to 20-mL clear glass vial for testing.
Accelerated photodegradation was studied using a Q-Sun Xenon Test Chamber (Q-Lab Model No. Xe-1-SC) at an irradiance setting of 350 mW/m^2 at 340 nm and temperature of 25 degrees Celsius. To put this in perspective, 24 hours of constant Q-Sun irradiation at these settings is approximately equivalent to 12.4 days of direct sunlight in the southwestern United States. At 0, 1, 2, 4, and 6 hours from the beginning of the radiation, a 0.4-mL aliquot from each vial is pippeted out to a 1-mL glass insert for analysis.
The samples are analyzed using an Agilent 1100 LC/MSD equipped with a quaternary pump and a diode-array detector (DAD). The peak areas from the MSD chromatograms are used for quantitation, and the photostability is shown by plotting the percentages of the test compound which remains intact at all time points. The peak areas from the DAD chromatograms are used for quantitation for stabilizers with concentration at 250 uM or higher. The instrument conditions are listed below. • Column: YMC ODS AQ 3 um, 4.0×23 mm • Column Temperature: Room temperature • Auto-sampler Temperature: Room temperature • Mobile Phase A: Water • Mobile Phase B: Methanol • Mobile Phase C: 1% Formic Acid • Gradient: % C is constant at 5%; % B from 5% to 95% in 2 min, then back to 5% at 2.1 min, and then held at 5% until 3.25 min; flow rate is 2 mL/min • Injection volume: 10 uL • Data Collection time: 2.75 minutes • MSD ion source: APCI • MSD Signal settings: Positive, selected ion monitoring (SIM) at the mass of the expected molecular ions. • UV detection wavelength: 230 nm. • MSD detection start time: 0.5 min
FIGS. 2 and 3 illustrate the photostability study of Compounds A and B under these condition: Direct sunlight was modeled using a Q-Sun Xenon Test Chamber (Q-Lab Model No. Xe-1-SC) at an irradiance setting of 350 mW/m^2 @340 nm, 25° C. Test samples were irradiated in the Q-Sun at these settings in pH 2.8 buffer with/without Compounds A and B in the presence/absence of the photo-stabilizers A (chlorogenic acid) and B (rutin, a.k.a. quercetin-3-rutinoside).
Direct sunlight was modeled using a Q-Sun Xenon Test Chamber (Q-Lab Model No. Xe-1-SC) at an irradiance setting of 350 mW/m^2 @340 nm, 25° C. Test samples were irradiated in the Q-Sun at these settings in pH 2.8 buffer with Compound A in the presence/absence of the photo-stabilizers. […] Direct sunlight was modeled using a Q-Sun Xenon Test Chamber (Q-Lab Model No. Xe-1-SC) at an irradiance setting of 350 mW/m^2 @340 nm, 25° C. Test samples were irradiated in the Q-Sun at these settings in pH 2.8 buffer with 25 μM of Compound A in the presence/absence of the photo-stabilizers at a concentration of 100 ppm. […] Direct sunlight was modeled using a Q-Sun Xenon Test Chamber (Q-Lab Model No. Xe-1-SC) at an irradiance setting of 350 mW/m^2 @340 nm, 25° C. Test samples were irradiated in the Q-Sun at these settings in pH 2.8 buffer with sweet enhancer Compound E in the presence/absence of the photostabilizers.

[2] = % of 25 μM Compound A remaining with the cinnamic acid or coumarin derivative at 100 ppm (Table 4), pH 2.8 buffer, Q-Sun 350 mW/m^2 @340 nm, 25° C.

COc1cc(C=CC(=O)O)cc(OC)c1O (stereo in doubt) [sinapinic acid]
% Remaining @ 1 hr [1, 2]: 100.00% | % Remaining @ 2 hrs [1, 2]: 99.98% | % Remaining @ 4 hrs [1, 2]: 100.12% | % Remaining @ 6 hrs [1, 2]: 98.52%

COc1ccc2ncc(C(=O)O)c(N)c2c1 [Compound B]
% of compound degraded after 6 hr of irradiation ([1]; pH 2.8): about 80%

CCC(CC)COc1cccc2nc(C)c(C(=O)O)c(N)c12 [Example 22, 4-amino-5-(2-ethylbutoxy)-2-methylquinoline-3-carboxylic Acid]
melting point: 145 to 151 °C

Cc1nc2cccc(OCC(C)(C)NC(=O)c3ccncc3)c2c(N)c1C(=O)O [Example 24, 4-amino-5-(2-(isonicotinamido)-2-methylpropoxy)-2-methylquinoline-3-carboxylic Acid]
melting point: 195 to 198 °C

Cc1nc2cccc(OCC(C)(C)NC(=O)c3cccc(O)c3)c2c(N)c1C(=O)O [Example 25, 4-amino-5-(2-(3-hydroxybenzamido)-2-methylpropoxy)-2-methylquinoline-3-carboxylic Acid]
melting point: 195 to 198 °C

Cc1nc2cccc(OC3CCCCC3)c2c(N)c1C(=O)O [Example 36, 4-amino-5-(cyclohexyloxy)-2-methylquinoline-3-carboxylic Acid]
melting point: 220 to 221.5 °C

Cc1nc2cccc(OCC(C)C)c2c(N)c1C(=O)O [Example 41, 4-amino-5-isobutoxy-2-methylquinoline-3-carboxylic Acid]
melting point: 203.7 °C

Cc1nc2cccc(OCC(C)(C)C(=O)NC3CC3)c2c(N)c1C(=O)O [Example 135, 4-amino-5-(3-(cyclopropylamino)-2,2-dimethyl-3-oxopropoxy)-2-methyl-quinoline-3-carboxylic Acid]
melting point: 227 to 229 °C

Cc1nc2cccc(OCC(C)(C)C(=O)NC3CCC3)c2c(N)c1C(=O)O [Example 136, 4-amino-5-(3-(cyclobutylamino)-2,2-dimethyl-3-oxopropoxy)-2-methylquinoline-3-carboxylic Acid]
melting point: 183 to 187 °C

Cc1nc2cccc(O[C@H]3CC[C@H](NC(=O)C(C)C)CC3)c2c(N)c1C(=O)O [Example 137, 4-amino-5-(((1,4)-trans-4-isobutyramidocyclohexyl)oxy)-2-methylquinoline-3-carboxylic Acid]
melting point: 183 to 185 °C

Cc1nc2cccc(OCC(C)(C)NC(=O)CC(C)C)c2c(N)c1C(=O)O [Example 138, 4-amino-2-methyl-5-(2-methyl-2-(3-methylbutanamido)propoxy)quinoline-3-carboxylic Acid]
melting point: 195 to 198 °C

Cc1nc2cccc(OCC(C)(C)NC(=O)C(C)C)c2c(N)c1C(=O)O [Example 139, 4-amino-5-(2-isobutyramido-2-methylpropoxy)-2-methylquinoline-3-carboxylic Acid]
melting point: 184 to 186 °C

Cc1nc2cccc(OCC(C)(C)NC(=O)C3CCOCC3)c2c(N)c1C(=O)O [Example 140, 4-amino-2-methyl-5-(2-methyl-2-(tetrahydro-2H-pyran-4-carboxamido)-propoxy)quinoline-3-carboxylic Acid]
melting point: 170 to 173 °C

CCC(=O)NC(C)(C)COc1cccc2nc(C)c(C(=O)O)c(N)c12 [Example 141, 4-amino-2-methyl-5-(2-methyl-2-propionamidopropoxy)quinoline-3-carboxylic Acid]
melting point: 189 to 193 °C

Cc1nc2cccc(OCC(C)(C)NC(=O)C3CCC3)c2c(N)c1C(=O)O [Example 142, 4-amino-5-(2-(cyclobutanecarboxamido)-2-methylpropoxy)-2-methylquinoline-3-carboxylic Acid]
melting point: 186 to 190 °C

Cc1nc2cccc(OC3CCN(C(=O)C(C)C)CC3)c2c(N)c1C(=O)O [Example 143, 4-amino-5-((1-isobutyrylpiperidin-4-yl)oxy)-2-methylquinoline-3-carboxylic Acid]
melting point: 184 to 186 °C

CCNC(=O)C(C)(C)COc1cccc2nc(C)c(C(=O)O)c(N)c12 [Example 144, 4-amino-5-(3-(ethylamino)-2,2-dimethyl-3-oxopropoxy)-2-methylquinoline-3-carboxylic Acid]
melting point: 168 to 170 °C

Cc1nc2cccc(OCC(C)(C)NC(=O)CC3CCOCC3)c2c(N)c1C(=O)O [Example 145, 4-amino-2-methyl-5-(2-methyl-2-(2-(tetrahydro-2H-pyran-4-yl)acetamido)-propoxy)quinoline-3-carboxylic Acid]
melting point: 175 to 178 °C

Cc1nc2cccc(OCC(C)(C)C(=O)NCC3CC3)c2c(N)c1C(=O)O [Example 146, 4-amino-5-(3-((cyclopropylmethyl)amino)-2,2-dimethyl-3-oxopropoxy)-2-methylquinoline-3-carboxylic Acid]
melting point: 177 to 179 °C

CCCCNC(=O)C(C)(C)COc1cccc2nc(C)c(C(=O)O)c(N)c12 [Example 147, 4-amino-5-(3-(butylamino)-2,2-dimethyl-3-oxopropoxy)-2-methylquinoline-3-carboxylic Acid]
melting point: 195 to 199 °C

O=C(O)/C=C/c1ccc(O)c(O)c1 [caffeic acid]
% Remaining @ 1 hr ([1]; buffer, 1 h, 100 ppm, pH 2.8): 98.02% | % Remaining @ 2 hrs ([1]; buffer, 2 h, 100 ppm, pH 2.8): 99.54% | % Remaining @ 4 hrs ([1]; buffer, 4 h, 100 ppm, pH 2.8): 98.74% | % Remaining @ 6 hrs ([1]; buffer, 6 h, 100 ppm, pH 2.8): 95.55%

O=c1ccc2ccc(O)c(O)c2o1 [daphnetin]
% Remaining @ 1 hr ([1]; buffer, 1 h, 100 ppm, pH 2.8): 99.13% | % Remaining @ 2 hrs ([1]; buffer, 2 h, 100 ppm, pH 2.8): 99.76% | % Remaining @ 4 hrs ([1]; buffer, 4 h, 100 ppm, pH 2.8): 98.13%

COc1cc(/C=C/C(=O)O)ccc1O [ferulic acid]
% Remaining @ 1 hr ([1]; buffer, 1 h, 100 ppm, pH 2.8): 95.41% | % Remaining @ 2 hrs ([1]; buffer, 2 h, 100 ppm, pH 2.8): 96.49% | % Remaining @ 4 hrs ([1]; buffer, 4 h, 100 ppm, pH 2.8): 93.43% | % Remaining @ 6 hrs ([1]; buffer, 6 h, 100 ppm, pH 2.8): 93.85%

COc1cc([C@@H]2CC(=O)c3c(O)cc(O)cc3O2)ccc1O [homoeriodictol, homoeriodictyol]
% Remaining @ 1 hr ([1]; buffer, 1 h, 12.5 ppm, pH 2.8): 90.83% | % Remaining @ 2 hrs ([1]; buffer, 2 h, 12.5 ppm, pH 2.8): 82.75% | % Remaining @ 4 hrs ([1]; buffer, 4 h, 12.5 ppm, pH 2.8): 57.70% | % Remaining @ 6 hrs ([1]; buffer, 6 h, 12.5 ppm, pH 2.8): 24.54%

C[C@@H]1O[C@@H](O[C@H]2[C@H](Oc3cc(O)c4c(c3)O[C@H](c3ccc(O)cc3)CC4=O)O[C@H](CO)[C@@H](O)[C@@H]2O)[C@H](O)[C@H](O)[C@H]1O [naringin]
% Remaining @ 1 hr ([1]; buffer, 1 h, 50 ppm, pH 2.8): 90.42% | % Remaining @ 2 hrs ([1]; buffer, 2 h, 50 ppm, pH 2.8): 75.92% | % Remaining @ 4 hrs ([1]; buffer, 4 h, 50 ppm, pH 2.8): 55.54% | % Remaining @ 6 hrs ([1]; buffer, 6 h, 50 ppm, pH 2.8): 41.50%

COc1ccc(CCC(=O)c2c(O)cc(O[C@@H]3O[C@H](CO)[C@@H](O)[C@H](O)[C@H]3O[C@@H]3O[C@@H](C)[C@H](O)[C@@H](O)[C@H]3O)cc2O)cc1O [neohesperidin dihydrochalcone]
% Remaining @ 1 hr ([1]; buffer, 1 h, 50 ppm, pH 2.8): 91.42% | % Remaining @ 2 hrs ([1]; buffer, 2 h, 50 ppm, pH 2.8): 82.53% | % Remaining @ 4 hrs ([1]; buffer, 4 h, 50 ppm, pH 2.8): 66.95% | % Remaining @ 6 hrs ([1]; buffer, 6 h, 50 ppm, pH 2.8): 56.72%

O=C(CCc1ccc(O)cc1)c1c(O)cc(O)cc1O [phloretin]
% Remaining @ 1 hr ([1]; buffer, 1 h, 25 ppm, pH 2.8): 89.62% | % Remaining @ 2 hrs ([1]; buffer, 2 h, 25 ppm, pH 2.8): 80.75% | % Remaining @ 4 hrs ([1]; buffer, 4 h, 25 ppm, pH 2.8): 64.60% | % Remaining @ 6 hrs ([1]; buffer, 6 h, 25 ppm, pH 2.8): 50.64%

COc1cc2ccc(=O)oc2cc1O [scopoletin]
% Remaining @ 4 hrs ([1]; buffer, 4 h, 100 ppm, pH 2.8): 100.07% | % Remaining @ 6 hrs ([1]; buffer, 6 h, 100 ppm, pH 2.8): 95.72%

— patent publication US10244779B2, “Method of improving stability of sweet enhancer and composition containing stabilized sweet enhancer” (SENOMYX, INC., priority 2010, dated 2019)
